Measurements from patent publication US10758541B2, “Formulations of milciclib and therapeutic combinations of the same for use in the treatment of cancer” (Tiziana Life Sciences PLC, priority 2017, dated 2020).

Columns and labels:
[1] = system: MHCC97H human liver cells; experiment: Orthotopic tumor induction in athymic nude mice; assay type: in vivo; conditions: oral, once daily day 12 to 47; milciclib 30 mg/kg/day, sorafenib 20 mg/kg/day; vs vehicle
Description: Mouse experiments were performed in accordance with the guidelines approved by the Institutional Animal Care and use committee of Washington Biotechnology Inc (Baltimore, Md.) where the studies were conducted. (FIG. 66) Test agents were dissolved in chremophor/ethanol (1:1) to make a 5× stock solution and diluted in water when used. MHCC97H human liver cells (5×106) in PBS were mixed with 20% Matrigel and then inoculated orthotopically into the right flank of female Balb/c nude mice. Seven days after cell inoculation, the mice were randomly allocated to either the treatment group (n=12) or the control group (n=12) based on the levels of AFP. The daily animal inspection was conducted for general appearance and tumor growth. Milciclib (30 mg/Kg), sorafenib (20 mg/Kg), milciclib+sorafenib or the corresponding vehicle was given orally to individual mice once daily from day 12 until day 47. After completion of the treatment at day 48, animals were euthanized and blood, liver tissues and tumor were collected for gene expression and mechanistic assays. Liver tumors developed 100% of animals challenged with orthotopic MHCC97H injection.

[2] = system: p27, p21, p57, p53, cyclin D1, cyclin E2, MKI67, c-Myc, CdC6; experiment: Quantitative real-time PCR gene expression in orthotopic HCC tumors; assay type: in vivo; conditions: orthotopic HCC mice
Description: Total RNA was extracted using the RNeasy Mini kit according to the manufacturer's instructions (Qiagen, Germantown, Md.). RNA was quantified using Nanodrop Lite (Thermo Scientific, Wilmington, Del.). Complementary DNA (cDNA) synthesis was performed by reverse transcription of total RNA using the High Capacity cDNA Reverse Transcription Kit (Thermo Fisher Scientific, Rockford, Ill.). Real-time quantitative PCR was employed using the LightCycler 480 Instrument II (Roche Diagnostics Corporation, Indianapolis, Ind.) using TaqMan Fast Advanced Master Mix and TaqMan Gene Expression probes for human p27, cyclin E2, cyclin A2, CdC6, MKI67, cyclin D1, p21, p57, c-Myc and p53 (Thermo Fisher Scientific). The expression of target genes was normalized to the housekeeping gene GAPDH in each sample. All samples were run in duplicate and the relative gene expression calculated as 2−ΔCT was expressed as fold increase over control samples.

MHCC97H cells = experiment: IC50 values by cell proliferation assay (WST-1); assay type: cell-based, human; conditions: Homo sapiens, MHCC97H, 72 h, individual inhibitor, 72 hours, WST-1; read-out: MHCC97H IC50
Description: (§1) MHCC97H and MHCC97L (highly metastatic hepatocellular carcinoma cell line, derived from humans)
Cells (MHCC97H, MHCC97L, and HepG2.2.15) were cultured for 24 hours in 2% FBS and then were trypsinized, resuspended in 2% FBS and seeded in a rat collagen coated 96-well plate at a density of 10,000 cells/100 μl/well, a day before the experiment and cultured at 37° C. in 5% CO2. The cells were treated the next day with milciclib, sorafenib, regorafenib, sunitinib, and lenvatinib, individually or in combination in DMEM/F12+2% FBS+for 72 hours prior to the addition of WST-1 reagent. About 100 μL media was added to control well. […] To determine cell proliferation by the colorimetric test, 10 μL of WST-1 reagent (Sigma Aldrich, St Louis, Mo.) was added in 100 μL cell culture media and incubated for 2 hours in 5% CO2 at 37° C. At the end of incubation period, the plate was placed on a plate shaker for 1 minute and was monitored using a spectrophotometer at an optical density of 450 nm with a reference wavelength of 600 nm using Tecan F200 and iControl software. IC50 values were determined using GraphPad Prism (GraphPad Software, La Jolla, Calif.). Each experiment was performed in duplicate and repeated 2 times.

MHCC97L cells [3] = experiment: Wound healing assay; assay type: cell-based, human; conditions: scratched monolayer of MHCC97L cells, 96 hours, vs vehicle control
Description: (§2) Cells were seeded at a density of 500,000 cells/2 mL/well on to a collagen-coated 6-well culture plate and incubated overnight in a humidified CO2 incubator at 37° C. to form a uniform monolayer. The monolayer was then scratched in a straight line with a new 10 μL pipette tip across the center of the well. After scratching, cells were washed with sterile PBS once to remove detached cells. Subsequently, wells were replenished with fresh DMEM/F12 containing 2% FBS and the test article either alone or in combination with milciclib. […] Images were analyzed using SlideBook™ 5 software. The values were expressed as a percentage of migration. See Saxena N K, Sharma D, Ding X, et al. Concomitant activation of the JAK/STAT, PI3K/AKT, and ERK signaling is involved in leptin-mediated promotion of invasion and migration of hepatocellular carcinoma cells. Cancer Res. 2007; 67: 2497-2507.

HepG2.2.15 cells = experiment: Wound healing assay; assay type: cell-based, human; conditions: scratched monolayer of HepG2.2.15 cells, 96 hours, vs vehicle control
Description: as §2

MHCC97L cells [4] = experiment: IC50 values by cell proliferation assay (WST-1); assay type: cell-based; conditions: Homo sapiens, individual inhibitor, 72 hours
Description: See Shailubhai, K et al. “Atiprimod is an inhibitor of cancer cell proliferation and angiogenesis.” J Exp Ther Oncol. 2004; 4: 267-279; and Choudhari et al. “Deactivation of Akt and STAT3 signaling promotes apoptosis, inhibits proliferation, and enhances the sensitivity of hepatocellular carcinoma cells to an anticancer agent, atiprimod” Molecular Cancer Therapeutics. 2007; 6: 112-121. References are incorporated herein in their entireties.
as §1
Cells (MHCC97H, MHCC97L, and HepG2.2.15) were cultured for 24 hours in 2% FBS and then were trypsinized, resuspended in 2% FBS and seeded in a rat collagen coated 96-well plate at a density of 10,000 cells/100 μl/well, a day before the experiment and cultured at 37° C. in 5% CO2. The cells were treated the next day with milciclib, sorafenib, regorafenib, sunitinib, and lenvatinib, individually or in combination in DMEM/F12+2% FBS+for 72 hours prior to the addition of WST-1 reagent. About 100 μL media was added to control well. After cells had been cultured for 72 hours with different drug concentrations, cells were washed 3 times with sterile 1× Phosphate buffered saline (PBS). To determine cell proliferation by the colorimetric test, 10 μL of WST-1 reagent (Sigma Aldrich, St Louis, Mo.) was added in 100 μL cell culture media and incubated for 2 hours in 5% CO2 at 37° C. At the end of incubation period, the plate was placed on a plate shaker for 1 minute and was monitored using a spectrophotometer at an optical density of 450 nm with a reference wavelength of 600 nm using Tecan F200 and iControl software. IC50 values were determined using GraphPad Prism (GraphPad Software, La Jolla, Calif.). Each experiment was performed in duplicate and repeated 2 times.

SMILES: CNC(=O)c1nn(C)c2c1C(C)(C)Cc1cnc(Nc3ccc(N4CCN(C)CC4)cc3)nc1-2 [MILCICLIB, N,1,4,4-tetramethyl-8-((4-(4-methylpiperazin-1-yl)phenyl)amino)-4,5-dihydro-1H-pyrazolo[4,3-h]quinazoline-3-carboxamide]
- reducing tumor growth [1]: 20%
- expression of cell proliferation genes such as MKI67, cdc6, c-Myc ([2]; oral administration): downregulated
- expression of cyclins such as cyclin E2 and cyclin D1 ([2]; oral administration): downregulated
- expression of tumor suppressors such as p27, p21, p53 and p57 ([2]; oral treatment): upregulated
- IC50 (MHCC97H cells): 1300 nM
- cell migration (MHCC97L cells [3]): reduced cell migration
- cell migration (HepG2.2.15 cells): reduced cell migration
- IC50 (MHCC97L cells [4]): 1000 nM
